The text below walks through data of patent US20210324442A1, “In vitro Transcription-Translation Metabolic Networks to Measure Quantity or Activity of Enzymes” (priority 2020, published 2021).

pEC50: −log10 of the molar value.

For assay [1], the target named is T1, phosphoenolpyruvate carboxylase (Escherichia coli, UniProt P00864).
T1 construct: many enzymes which likely retain activity in the lysate-based CFPS reactions consume precious ATP superfluously; endogenous in cells; host or cells: E. coli BL21 Star (DE3) cell extract (lysate)
T1 sequence (P00864 whole entry): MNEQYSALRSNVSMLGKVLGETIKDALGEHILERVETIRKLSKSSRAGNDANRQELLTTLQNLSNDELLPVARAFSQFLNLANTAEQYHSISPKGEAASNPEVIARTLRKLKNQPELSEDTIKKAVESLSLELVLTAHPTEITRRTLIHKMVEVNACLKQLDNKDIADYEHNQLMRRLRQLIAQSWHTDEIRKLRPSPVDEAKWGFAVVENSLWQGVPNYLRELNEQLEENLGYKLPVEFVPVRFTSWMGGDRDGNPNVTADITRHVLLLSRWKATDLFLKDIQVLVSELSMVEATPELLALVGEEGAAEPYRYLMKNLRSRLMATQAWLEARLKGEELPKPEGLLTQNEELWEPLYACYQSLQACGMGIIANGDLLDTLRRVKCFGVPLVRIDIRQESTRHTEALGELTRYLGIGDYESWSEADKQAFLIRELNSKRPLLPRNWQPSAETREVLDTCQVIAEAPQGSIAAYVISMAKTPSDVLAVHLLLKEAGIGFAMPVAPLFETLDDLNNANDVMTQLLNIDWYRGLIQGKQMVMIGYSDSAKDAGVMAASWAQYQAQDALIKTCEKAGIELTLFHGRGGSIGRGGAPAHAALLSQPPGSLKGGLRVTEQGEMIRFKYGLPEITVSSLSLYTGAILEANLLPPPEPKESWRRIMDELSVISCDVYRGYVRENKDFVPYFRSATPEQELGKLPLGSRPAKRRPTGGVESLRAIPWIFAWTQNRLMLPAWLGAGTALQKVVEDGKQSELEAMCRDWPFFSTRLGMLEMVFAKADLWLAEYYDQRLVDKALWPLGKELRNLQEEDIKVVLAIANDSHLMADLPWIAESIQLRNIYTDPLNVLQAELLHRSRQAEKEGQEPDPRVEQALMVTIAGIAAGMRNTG
The assay is described as follows: CFPS yield with raised initial Asp. The class given is biochemical, E. coli. Particulars: 12 mM Asp compared with conventional 2 mM Asp, one-hour reaction. An excerpt: The metabolic engineering approach presented in this work may also be useful for modulating protein expression yield or other desired products from cell-free reactions. Indeed, many enzymes which likely retain activity in the lysate-based CFPS reactions consume precious ATP superfluously. For example, GLNS, which is inhibited in this work, consumes ATP in the process of synthesizing Gln. […] Indeed, during the process of completing the work described herein, we learned that phosphoenolpyruvate carboxylase circumvents the production of ATP from PEP, and that its inhibition might improve CFPS performance. Accordingly, we identified Asp as an inhibitor of this enzyme and observed that CFPS initiated with 12 mM Asp compared with the conventional 2 mM Asp increased CFPS yield by 38% over a one-hour reaction (FIG. 8).
(§1) Gln was omitted from Gln-sensing reactions. […] Results were obtained after 60 minutes.

The target of another assay is T2, E. coli ASNase (Escherichia coli, UniProt P00805).
T2 construct: purchased
T2 sequence (P00805 23-348): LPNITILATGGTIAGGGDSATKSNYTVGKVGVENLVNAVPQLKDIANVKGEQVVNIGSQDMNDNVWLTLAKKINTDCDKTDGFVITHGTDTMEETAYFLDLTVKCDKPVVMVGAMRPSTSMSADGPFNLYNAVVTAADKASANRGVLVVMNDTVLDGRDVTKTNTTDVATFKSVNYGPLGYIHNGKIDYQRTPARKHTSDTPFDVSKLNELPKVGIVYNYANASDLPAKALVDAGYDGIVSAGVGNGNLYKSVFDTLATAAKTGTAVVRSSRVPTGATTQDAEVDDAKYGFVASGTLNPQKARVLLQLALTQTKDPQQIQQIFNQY
Briefly: CFPS reactions producing GFP in the presence of E. coli ASNase and ASP. Type of assay: biochemical. Particulars: 1.54 IU/mL ASNase + 6.5 mM ASP vs 1.54 IU/mL ASNase. As to the method: In FIG. 8, CFPS reactions producing GFP in the presence of E. coli ASNase and ASP. Reported conditions include 0 IU/mL ASNase (no ASNase added), 1.54 IU/mL ASNase, and 1.54 IU/mL ASNase+6.5 mM ASP. […] No plasmid (NP) control tests for the impact of CFPS machinery and possible reaction products if added to a CFPS reaction producing GFP. As such, for the NP control 5 μL of a cellfree reaction product (where no plasmid was added such that no protein expression was templated) was added to a second CFPS reaction producing GFP. […] Error bars represent one standard deviation for n=2 CFPS reactions.

Assay [2] relates to E. coli-based CFPS reactions producing GFP. The assay is described as follows: CFPS Gln sensor assay, aqueous samples (GFP reporter). Type of assay: biochemical. The conditions noted are these: 70 mM MSO, Gln omitted as reagent, 1 hr, n=2, read-out: EC50 value (Hill equation fit of GFP response). As for the experimental part:
Reactions omitted Gln as a reagent but included 70 mM MSO. Aqueous samples of known Gln concentrations were added to the CFPS reaction. On the graph, the x-axis represents the final concentration of Gln in the CFPS reaction (ranging from 0 to 2400 μM). Each data point represents a CFPS reaction after 1 hr with n=2 at each Gln concentration. […] The inset plots linear regression of the data. The solid blue line represents the fit, solid red bands represent the 95% confidence of fit, and dashed black bands represent the 95% confidence range for a single-point prediction.
Example 1: E. coli cell extract containing bacteriophage T7 RNA polymerase was prepared as previously described. Briefly, 5 mL overnight culture of BL21 Star™ (DE3) was added to 100 mL 2xYT. When OD600 reached ˜2.0, culture was transferred to 900 mL 2xYT. 1 L cultures were induced with 1 mM IPTG at OD600 0.4-0.6 and harvested at OD600 ˜2.5. All bacterial cultures were incubated at 37° C. and 280 RPM. Cells were homogenized with three passes at 21000 psi using the EmulsiflexB15 French press homogenizer (Avestin, Ottawa, Calif.) and centrifuged at 12000 RCF for 10 min. Clarified lysate was then incubated at 37° C. and 280 RPM for 30 min. Cell extract was dialyzed using 14 kDa MW cut-off cellulose membrane tubing (MilliporeSigma, Billerica, Mass.) for 4 hr at 4° C. immediately following incubation at 37° C. […]

Assay [3] shares this test system. Briefly: CFPS Gln sensor assay in the presence of human serum. Type of assay: biochemical. Particulars: 70 mM MSO, RNAse inhibitor, 14% (v/v) human serum, 1 hr, n=2; read-out: EC50 value (Hill equation fit of GFP response). As to the method:
Reactions omitted Gln as a reagent but contained 70 mM MSO, RNAse inhibitor, and 14% (v/v) human serum with increasing Gln concentrations. The x-axis represents the corresponding Gln concentration in the CFPS reaction. Each data point represents a CFPS reaction after 1 hr with n=2 at each CFPS Gln concentration. […] Solid blue line represents the fit, solid red bands represent the 95% confidence of fit, and dashed black bands represent the 95% confidence range for a single-point prediction.
Example 1: E. coli cell extract containing bacteriophage T7 RNA polymerase was prepared as previously described. Briefly, 5 mL overnight culture of BL21 Star™ (DE3) was added to 100 mL 2xYT. When OD600 reached ˜2.0, culture was transferred to 900 mL 2xYT. 1 L cultures were induced with 1 mM IPTG at OD600 0.4-0.6 and harvested at OD600 ˜2.5. All bacterial cultures were incubated at 37° C. and 280 RPM. Cells were homogenized with three passes at 21000 psi using the EmulsiflexB15 French press homogenizer (Avestin, Ottawa, Calif.) and centrifuged at 12000 RCF for 10 min. Clarified lysate was then incubated at 37° C. and 280 RPM for 30 min. Cell extract was dialyzed using 14 kDa MW cut-off cellulose membrane tubing (MilliporeSigma, Billerica, Mass.) for 4 hr at 4° C. immediately following incubation at 37° C.
as §1

Assay [4] concerns the target glutamine synthetase (GLNS) (Escherichia coli, UniProt P0A9C5).
Procedure: Example 2: Cell-free protein synthesis reactions were formulated in 96-well plates with the following specifications: 25% (v/v) cell extract, 12 nM pY71-sfGFP^37, 10-20 mM magnesium glutamate (concentration adjusted for optimal protein yield), 1 mM 1,4-diaminobutane, 1.5 mM spermidine, 40 mM phosphoenolpyruvate, 10 mM ammonium glutamate, 175 mM potassium glutamate, 2.7 mM potassium oxalate, 0.33 mM nicotinamide adenine dinucleotide, 0.27 mM coenzyme A, 1.2 mM ATP, 0.86 mM CTP, 0.86 mM GTP, 0.86 mM UTP, 0.17 mM folinic acid, 6 mM aspartate, 6 mM asparagine, and 2 mM of the 16 remaining proteinogenic amino acids. Gln was omitted from Gln-sensing reactions. For reactions containing human serum (Gemini Bio Products, Sacramento, Calif.), murine RNAse inhibitor (New England BioLabs, Ipswich MA) was added to a final concentration of 0.8 U/μL CFPS. Reactions were incubated at 37° C. in a BioTek SynergyMX plate reader, shaken for 30 seconds, and analyzed for fluorescence every 4-6 minutes at 480/510 nm excitation/emission wavelengths. Results were obtained after 60 minutes. Assay signal strength was calculated as the ratio of GFP RFU at saturating Gln concentrations to the GFP RFU at 0 μM Gln.

Chain of glutamine synthetase (GLNS) (P0A9C5 2-469 limits assumed): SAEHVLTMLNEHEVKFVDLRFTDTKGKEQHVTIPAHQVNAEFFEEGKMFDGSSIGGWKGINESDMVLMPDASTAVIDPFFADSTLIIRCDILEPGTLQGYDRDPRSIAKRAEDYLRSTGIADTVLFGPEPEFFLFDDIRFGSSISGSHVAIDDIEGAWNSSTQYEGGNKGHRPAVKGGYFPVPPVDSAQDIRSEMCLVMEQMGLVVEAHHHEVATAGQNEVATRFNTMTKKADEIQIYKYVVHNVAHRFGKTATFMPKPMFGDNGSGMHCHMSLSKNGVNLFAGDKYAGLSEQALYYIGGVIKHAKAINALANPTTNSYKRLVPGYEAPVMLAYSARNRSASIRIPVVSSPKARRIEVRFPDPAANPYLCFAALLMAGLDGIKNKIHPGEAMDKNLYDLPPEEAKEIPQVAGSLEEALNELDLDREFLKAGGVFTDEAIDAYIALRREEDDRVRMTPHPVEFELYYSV

Take `N[C@@H](CC(=O)O)C(=O)O` [Asp, L-aspartate]: in assay [1], the “increase of CFPS yield” value stood at 38%. Also, the “effect of ASP supplementation on ASNase activity” value on E. coli ASNase was “inhibitory effect”.

For `NC(=O)CC[C@H](N)C(=O)O` [Gln, L-glutamine], the pEC50 (usually −log10 of the EC50, conventionally taken in molar units) was 3.81 in assay [2] and 4.00 in assay [3].

In the case of `CS(=N)(=O)CC[C@H](N)C(=O)O` (stereo partly drawn) [MSO, Methionine sulfoximine], the “effect on CFPS expression yield” value in assay [4] (concentrations up to 80 mM in the presence of 2 mM Gln) is listed as “little effect”. The “signal-to-noise ratio of the assay” value in assay [4] (increased linearly with increasing MSO concentration up to 70 μM) was around 10.
